Like-named read-outs stand apart in the source and are kept apart here.
What was measured:
Assay type in all cases: cell-based
[1] = Cell viability measurement (MTS), Calu-3 cells; details: human
Description: (§1) Experimental Example 3: Cell Viability Measurement
(§2) Vero cell line (VERO01WCB-1201, Ministry of Food and Drug Safety, Republic of Korea), Calu-3 cell line (KCLB #30055, Korea Cell Line Bank (KCLB), Republic of Korea), CellTiter 96® AQueous One Solution Cell Proliferation Assay kit (Promega, cat. #G3582), and Infinite M200 microplate reader (Tecan).
Calu-3 cells were cultured at 37 °C and 5% CO2 in MEM medium supplemented with 10% fetal bovine serum, 2.2 g/L sodium bicarbonate, 1% 100 units/mL penicillin, and 100 μg/mL streptomycin.
(§3) Vero cells or Calu-3 cells were seeded in 96-well microplates and cultured for 24 hours until the cell confluency reached 20%. After the incubation, compounds were treated in DMSO at concentrations (1, 3, and 10 μM) to reach 0.5% v/v in each well, and reacted at 37 °C for 48 hours. Into each well of the incubated 96-well microplate, 3-(4,5-dimethylthiazol-2-yl)-5-(3-carboxymethoxyphenyl)-2-(4-sulfophenyl)-2H-tetrazolium salt (MTS) assay solution [CellTiter 96® AQueous One Solution Cell Proliferation Assay kit (Promega)] mixed with DMEM medium at a ratio of 1:5, was dispensed at 100 μL/well and incubated at 37 °C for 1 hour. The 490 nm and 690 nm absorbance was then measured using an Infinite M200 instrument.
(§4) The cell viability (also, referred to as cell survival rate) (%) by compound treatment was calculated using the following analysis method. The 690 nm background absorbance value was subtracted from the measured 490 nm absorbance value. Then, to obtain the cell viability of each test group, the viability of the DMSO-treated group that was not treated with the compound was set to 100% and then the relative viability 1 of each compound was calculated. Two to six repeated tests were performed to obtain the results, and the mean values of the results were categorized into the following ranges and shown in Table 5 below (A: 80% survived, B: 50-80% survived, N/A: not tested)

[2] = system: Severe Acute Respiratory Syndrome Coronavirus Type 2; assay: microbe, parasite or virus in culture; details: Vero, read-out: Virus replication inhibition efficacy
[3] = Cell viability measurement (MTS), Vero cells; details: monkey
Description: as §1, §2
Vero cells were cultured at 37 °C and 5% CO2 in DMEM medium supplemented with 10% fetal bovine serum, 100 units/mL penicillin, and 100 μg/mL streptomycin.
as §3, §4

[4] = system: Severe Acute Respiratory Syndrome Coronavirus Type 2; assay: microbe, parasite or virus in culture; details: read-out: Virus replication inhibition efficacy
[5] = 10 uM, virus strain NCCP-43388, 48 hours
[6] = Calu-3, 10 uM, virus strain NCCP-43388, 48 hours
[7] = 10 uM, virus strain NCCP-43344, 48 hours
[8] = Calu-3, 10 uM, virus strain NCCP-43344, 48 hours

Compound	viability at 48 h, 1 µM [1]	inhibition at 10 µM [2, 5]	viability at 48 h, 1 µM [3]	viability at 48 h, 3 µM [3]	inhibition at 10 µM [4, 6]	further results
c1ccc(-c2ccc(Nc3cccc(-c4nc5ccccc5[nH]4)c3)nn2)cc1 [Example 2, N-(3-(1H-benzo[d]imidazol-2-yl)phenyl)-6-phenylpyridazin-3-amine]	50 to 80%	> 60%	> 80%	> 80%	> 60%	viability at 48 h, 10 µM [3]: 50 to 80%
Clc1cc2nc(-c3cccc(Nc4ccc(-c5ccccc5)nn4)c3)[nH]c2cc1Cl [Example 7, N-(3-(5,6-dichloro-1H-benzo[d]imidazol-2-yl)phenyl)-6-phenylpyridazin-3-amine]			> 80%	> 80%		inhibition at 10 µM [2, 7]: 30 to 60%; inhibition at 10 µM [4, 8]: 30 to 60%
FC(F)(F)c1cc2nc(-c3cccc(Nc4ccc(-c5ccccc5)nn4)c3)[nH]c2cc1Cl [Example 8, N-{3-[6-chloro-5-(trifluoromethyl)-1H-benzo[d]imidazol-2-yl]phenyl}-6-phenylpyridazin-3-amine]			> 80%	> 80%		inhibition at 10 µM [2, 7]: 30 to 60%; inhibition at 10 µM [4, 8]: 30 to 60%
FC(F)(F)c1cc2nc(-c3cccc(Nc4ccc(-c5ccccc5)nn4)c3)[nH]c2cc1Br [Example 9, N-{3-[6-bromo-5-(trifluoromethyl)-1H-benzo[d]imidazol-2-yl]phenyl}-6-phenylpyridazin-3-amine]			> 80%	50 to 80%		inhibition at 10 µM [2, 7]: 30 to 60%
c1ccc(-c2ccc(Nc3cccc(-c4nc5ccccc5[nH]4)c3)cc2)nc1 [Example 20, 3-(1H-benzo[d]imidazol-2-yl)-N-(4-(pyridin-2-yl)phenyl)aniline]	> 80%	> 60%	> 80%		> 60%	viability at 48 h, 3 µM [1]: 50 to 80%; viability at 48 h, 10 µM [3]: 50 to 80%
c1cc(Nc2ccc(-c3cccnn3)cc2)cc(-c2nc3ccccc3[nH]2)c1 [Example 21, 3-(1H-benzo[d]imidazol-2-yl)-N-(4-(pyridazin-3-yl)phenyl)aniline]	> 80%	> 60%		> 80%	> 60%	viability at 48 h, 3 µM [1]: 50 to 80%; viability at 48 h, 10 µM [1]: 50 to 80%; viability at 48 h, 10 µM [3]: 50 to 80%
c1cc(Nc2ccc(-c3ccncn3)cc2)cc(-c2nc3ccccc3[nH]2)c1 [Example 22, N-[3-(1H-benzo[d]imidazol-2-yl)phenyl]-4-(pyrimidin-4-yl)aniline]	> 80%		> 80%	> 80%		inhibition at 10 µM [2, 7]: > 60%; viability at 48 h, 10 µM [3]: 50 to 80%; inhibition at 10 µM [4, 8]: > 60%
FC(F)(F)c1ccc2nc(-c3cccc(Nc4ccc(-c5cccnn5)cc4)c3)[nH]c2c1 [Example 23, N-(4-(pyridazin-3-yl)phenyl)-3-(6-(trifluoromethyl)-1H-benzo[d]imidazol-2-yl)aniline]	> 80%		> 80%	> 80%		viability at 48 h, 3 µM [1]: 50 to 80%; inhibition at 10 µM [2, 7]: > 60%; inhibition at 10 µM [4, 8]: > 60%
FC(F)(F)c1ccc2nc(-c3cccc(Nc4ccc(-c5ccncn5)cc4)c3)[nH]c2c1 [Example 24, N-(4-(pyrimidin-4-yl)phenyl)-3-(6-(trifluoromethyl)-1H-benzo[d]imidazol-2-yl)aniline]	> 80%		> 80%	> 80%		inhibition at 10 µM [2, 7]: > 60%; inhibition at 10 µM [4, 8]: > 60%
FC(F)(F)c1ccc2nc(-c3cccc(Nc4ccc(-c5ncccn5)cc4)c3)[nH]c2c1 [Example 27, N-[4-(pyrimidin-2-yl)phenyl]-3-[6-(trifluoromethyl)-1H-benzo[d]imidazol-2-yl]aniline]		> 60%	> 80%	> 80%	> 60%	
FC(F)(F)c1ccc2nc(-c3cccc(Nc4ccc(-c5cncnc5)cc4)c3)[nH]c2c1 [Example 28, N-[4-(pyrimidin-5-yl)phenyl]-3-[6-(trifluoromethyl)-1H-benzo[d]imidazol-2-yl]aniline]		> 60%	> 80%		> 60%	
c1cc(Nc2ncc(-c3ccncn3)cn2)cc(-c2nc3ccccc3[nH]2)c1 [Example 76, N-[3-(1H-benzo[d]imidazol-2-yl)phenyl]-[4,5′-bipyrimidin]-2′-amine]		30 to 60%			30 to 60%	
FC(F)(F)c1ccc2nc(-c3cccc(Nc4ncc(-c5ccccn5)cn4)c3)[nH]c2c1 [Example 83, 5-(2-pyridyl)-N-[3-[6-(trifluoromethyl)-1H-benzo[d]imidazol-2-yl]phenyl]pyrimidin-2-amine]	> 80%	30 to 60%			30 to 60%	viability at 48 h, 3 µM [1]: > 80%; viability at 48 h, 10 µM [1]: > 80%
Cc1noc(-c2ccc3nc(-c4cccc(Nc5ccc(-c6cccnn6)cc5)c4)[nH]c3c2)n1 [Example 93, 3-(6-(3-methyl-1,2,4-oxadiazol-5-yl)-1H-benzo[d]imidazol-2-yl)-N-(4-(pyridazin-3-yl)phenyl)aniline]	> 80%	30 to 60%			> 60%	viability at 48 h, 3 µM [1]: > 80%; viability at 48 h, 10 µM [1]: > 80%
Fc1cc2[nH]c(-c3cccc(Nc4ccc(-c5cccnn5)cc4)c3)nc2cc1Cl [Example 102, 3-(5-chloro-6-fluoro-1H-benzo[d]imidazol-2-yl)-N-(4-pyridazin-3-ylphenyl)aniline]	> 80%	> 60%			> 60%	viability at 48 h, 3 µM [1]: > 80%; viability at 48 h, 10 µM [1]: 50 to 80%
Cc1ccc2nc(-c3cccc(Nc4ccc(-c5cccnn5)cc4)c3)[nH]c2c1 [Example 105, 3-(6-methyl-1H-benzo[d]imidazol-2-yl)-N-(4-pyridazin-3-ylphenyl)aniline]	> 80%	> 60%			> 60%	viability at 48 h, 3 µM [1]: 50 to 80%; viability at 48 h, 10 µM [1]: 50 to 80%
c1cc(Nc2ncc(-c3ccsc3)cn2)cc(-c2nc3ccccc3[nH]2)c1 [Example 164, N-[3-(1H-benzo[d]imidazol-2-yl)phenyl]-5-(3-thienyl)pyrimidin-2-amine]		> 60%			> 60%	
c1cc(Nc2ncc(-c3ncco3)cn2)cc(-c2nc3ccccc3[nH]2)c1 [Example 171, N-[3-(1H-benzo[d]imidazol-2-yl)phenyl]-5-oxazol-2-yl-pyrimidin-2-amine]		> 60%			> 60%	
Clc1ccc2nc(-c3cccc(Nc4ccc(-c5cccnn5)cc4)c3)[nH]c2c1 [Example 226, 3-(6-chloro-1H-benzo[d]imidazol-2-yl)-N-(4-(pyridazin-3-yl)phenyl)aniline]		> 60%			> 60%	
O=[N+]([O-])c1ccc2nc(-c3cccc(Nc4ccc(-c5cccnn5)cc4)c3)[nH]c2c1 [Example 227, 3-(6-nitro-1H-benzo[d]imidazol-2-yl)-N-(4-(pyridazin-3-yl)phenyl)aniline]		30 to 60%			> 60%	
N#Cc1ccc2nc(-c3cccc(Nc4ccc(-c5cccnn5)cc4)c3)[nH]c2c1 [Example 231, 2-(3-((4-(pyridazin-3-yl)phenyl)amino)phenyl)-1H-benzo[d]imidazole-6-carbonitrile]		> 60%			> 60%	
FC(F)(F)Oc1cc2[nH]c(-c3cccc(Nc4ccc(-c5cccnn5)cc4)c3)nc2cn1 [Example 232, N-(4-(pyridazin-3-yl)phenyl)-3-(6-(trifluoromethoxy)-1H-imidazo[4,5-c]pyridin-2-yl)aniline]						inhibition at 10 µM ([2]; 48 h): 30 to 60%; inhibition at 10 µM ([4]; Calu-3, 48 h): > 60%
Fc1cccc(-c2cnc(Nc3cccc(-c4nc5ccc(C(F)(F)F)cc5[nH]4)c3)nc2)n1 [Example 258, 5-(6-fluoropyridin-2-yl)-N-(3-(6-(trifluoromethyl)-1H-benzo[d]imidazol-2-yl)phenyl)pyrimidin-2-amine]		30 to 60%				
Fc1cccc(-c2cnc(Nc3cccc(-c4nc5ccccc5[nH]4)c3)nc2)n1 [Example 259, N-(3-(1H-benzo[d]imidazol-2-yl)phenyl)-5-(6-fluoropyridin-2-yl)pyrimidin-2-amine]		> 60%			> 60%	

From patent publication US20260364068A1, “ANTIVIRAL USE OF HETEROARYL DERIVATIVE COMPOUND” (UIF (University Industry Foundation), Yonsei University, priority 2022, published 2026)
